# Experimental data published in BindingDB's records for doi:10.1016/s0960-894x(01)00092-0 (Novartis Pharma, 2001).
# How the values were obtained:
# [1] = Inhibitory concentration against Selectin E in a dynamic flow assay.
# [2] = as above; remark: listed apart in the source
Structure (SMILES),IC50 [1],IC50 [2]
COC(=O)CCCCCCCCO[C@@H]1O[C@@H](CO)[C@@H](O[C@@H]2O[C@@H](CO)[C@H](O)[C@H](O[C@@H](CC3CCCCC3)C(=O)O)[C@@H]2O)[C@H](O[C@@H]2O[C@@H](C)[C@@H](O)[C@H](O)[C@@H]2O)[C@@H]1NC(=O)c1ccc(OC)c(OC)c1 [Sialyl Lewis X Analogue],10 µM,
"C[C@@H]1O[C@@H](O[C@@H]2[C@H](CO)OCC[C@H]2O[C@@H]2O[C@@H](CO)[C@H](O)[C@H](O[C@@H](CC3CCCCC3)C(=O)O)[C@@H]2O)[C@@H](O)[C@@H](O)[C@@H]1O [Sodium; (R)-3-cyclohexyl-2-{3,5-dihydroxy-2-hydroxymethyl-6-[2-hydroxymethyl-3-(3,4,5-trihydroxy-6-methyl-tetrahydro-pyran-2-yloxy)-tetrahydro-pyran-4-yloxy]-tetrahydro-pyran-4-yloxy}-propionate]",,30 µM
